Test results from PMC4290084, “Multiplex Imaging and Cellular Target Identification of Kinase Inhibitors via an Affinity-Based Proteome Profiling Approach” (Scientific Reports, 2015).

How the values were obtained:
Aurora kinase A (AKA) [1] = target: T1, Aurora kinase A (AKA) (Homo sapiens, UniProt O14965); assay: Kinase-Glo in vitro kinase inhibition assay with recombinant AKA; also photoaffinity labeling with PD/WB and IP in HeLa cells; format: biochemical
T1 construct: gene AURKA; recombinant AKA
T1 sequence (O14965 1-403): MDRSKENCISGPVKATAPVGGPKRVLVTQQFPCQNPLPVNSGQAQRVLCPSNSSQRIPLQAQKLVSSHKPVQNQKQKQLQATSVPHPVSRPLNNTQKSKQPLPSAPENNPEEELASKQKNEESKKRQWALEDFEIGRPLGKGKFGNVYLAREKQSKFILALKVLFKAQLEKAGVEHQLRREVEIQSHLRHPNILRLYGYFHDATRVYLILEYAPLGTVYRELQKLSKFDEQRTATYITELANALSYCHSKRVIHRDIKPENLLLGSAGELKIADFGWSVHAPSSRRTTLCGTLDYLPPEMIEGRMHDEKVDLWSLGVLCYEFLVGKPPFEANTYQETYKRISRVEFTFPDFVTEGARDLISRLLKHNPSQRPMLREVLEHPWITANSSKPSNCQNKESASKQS

Aurora kinase A (AKA) [2] = target: T1, Aurora kinase A (AKA); assay: Kinase-Glo in vitro kinase inhibition assay with recombinant AKA; format: biochemical

| IC50 (Aurora kinase A (AKA) [1]) | IC50 (Aurora kinase A (AKA) [2]) | Structure (SMILES) |
| --- | --- | --- |
| 15.1 ± 0.5 nM |  | C#CCCC1(CCNC(=O)c2ccc(Nc3ncc4c(n3)-c3ccc(Cl)cc3C(c3c(F)cccc3OC)=NC4)cc2OC)N=N1 [MLN-2] |
|  | 67.2 ± 0.4 nM | COc1cc(Nc2ncc3c(n2)-c2ccc(Cl)cc2C(c2c(F)cccc2OC)=NC3)ccc1C(=O)NCCNC(=O)OC1CC/C=C/CCC1 (stereo not drawn) [MLN-3] |
|  | 23.3 ± 0.5 nM | C#CCNC(=O)c1ccc(Nc2ncc3c(n2)-c2ccc(Cl)cc2C(c2c(F)cccc2OC)=NC3)cc1OC [MLN-1] |
